Measurements from publication PMC10484568 (Chemical communications (Cambridge, England), 2019).
≈ marks a conversion by molar mass, not a printed value. Where a SMILES comes first, the peptide text is derived from it. Bridges are numbered along the chain shown (N, C = ends). [ ]: non-standard residue; d: D form. The star is where a group is joined. X1 = CC[C@H](C)CCCCC(=O)*; Dab = NCC[C@H](N)C(=O)O

Key:
Type in all cases: cell-based
P. aeruginosa = tested on: P. aeruginosa
MRSA = tested on: MRSA
Hemolytic activity = assay: Hemolytic activity
MRSE = tested on: MRSE
E. coli = tested on: E. coli

## CC[C@H](C)CCCCC(=O)N[C@@H](CCN)C(=O)N[C@H](C(=O)N[C@@H](CCN)C(=O)N[C@H]1CCNC(=O)[C@H]([C@@H](C)O)NC(=O)[C@H](CCN)NC(=O)[C@H](CCN)NC(=O)[C@H](CC(C)C)NC(=O)[C@@H](CC(C)C)NC(=O)[C@H](CCN)NC1=O)[C@@H](C)O [Colistin, colistin] (X1-[Dab]T[Dab][Dab][Dab][dL]L[Dab][Dab]T; lactam 4-C (inferred); N-terminus assumed)
P. aeruginosa
  MIC P. aeruginosa (Gram negative): 0.5 µg/mL (≈ 0.428 µM)
MRSA
  Activity against MRSA (in words): not active
MRSA; multidrug resistant strain
  MIC MRSA (Gram positive): >50 µg/mL
Hemolytic activity
  HC50: > 250 µg/mL
MRSE
  MIC MRSE (Gram positive): > 50 µg/mL
E. coli
  MIC E. coli (Gram negative): 0.5 µg/mL (≈ 0.428 µM)
